Data: patent publication US4414204A, “Antibiotic preparations having increased effectiveness, processes for their manufacture and method for increasing the antibiotic action of antibiotics” (Ciba-Geigy Corporation, priority 1979, dated 1983)

How the values were obtained:
Type in all cases: in vivo
Klebsiella pneumoniae = experiment: Mice infected i.p. with Klebsiella pneumoniae, treated s.c. with cefroxadin alone or with muramylpeptide; survival, ED50; details: 2×10^4 cfu Klebsiella pneumoniae i.p., cefroxadin twice s.c. (0 and 3 h after infection) with 10 mg/kg N-acetylmuramyl-L-alanyl-D-isoglutaminyl-L-alanyl-2-(1',2'-dipalmitoyl-sn-glycero-3'-hydroxyphosphoryloxy)-ethylamide, survivors counted 4 and 10 days after infection
Experimental: (§1) For this purpose, animals are infected with a lethal or sub-lethal dose of a pathogenic micro-organism and then the specified novel preparation of the individual doses of muramylpeptide and antibiotic are administered. The action is determined as ED50, that is to say, the dose at which 50% of the animals survive.
(§2) Laboratory white mice are infected i.p. with 2×10^4 cfu (colony forming units) of Klebsiella pneumoniae, 0.1×10^4 cfu of Pasteurella multocida or 40×10^4 cfu of Salmonella typhimurium in salt solution so that 90 to 100% of the untreated control animals die within 48 hours. Immediately after infection and 3 hours after infection, groups of 10 mice are treated with cefroxadin, both alone (without muramylpeptide) and in combination with 10 mg/kg of N-acetylmuramyl-L-alanyl-D-isoglutaminyl-L-alanyl-2-(1',2'-dipalmitoyl-sn- glycero-3'-hydroxyphosphoryloxy)-ethylamide, these being administered twice subcutaneously in the form of aqueous solutions or suspensions. A count of the surviving animals was made 4 and 10 days after infection.

Salmonella typhimurium = experiment: Mice infected i.p. with Salmonella typhimurium, treated s.c. with cefroxadin alone or with muramylpeptide; survival, ED50; details: 40×10^4 cfu Salmonella typhimurium i.p., cefroxadin twice s.c. (0 and 3 h after infection) with 10 mg/kg N-acetylmuramyl-L-alanyl-D-isoglutaminyl-L-alanyl-2-(1',2'-dipalmitoyl-sn-glycero-3'-hydroxyphosphoryloxy)-ethylamide, survivors counted 4 and 10 days after infection
Experimental: as §1, §2

Pasteurella multocida = experiment: Mice infected i.p. with Pasteurella multocida, treated s.c. with cefroxadin alone or with muramylpeptide; survival, ED50; details: 0.1×10^4 cfu Pasteurella multocida i.p., cefroxadin twice s.c. (0 and 3 h after infection) with 10 mg/kg N-acetylmuramyl-L-alanyl-D-isoglutaminyl-L-alanyl-2-(1',2'-dipalmitoyl-sn-glycero-3'-hydroxyphosphoryloxy)-ethylamide, survivors counted 4 and 10 days after infection
Experimental: as §1, §2

Measured: ED50 values for the antibiotic in combination with the muramylpeptide versus alone

COC1=C(C(=O)O)N2C(=O)[C@@H](NC(=O)[C@H](N)C3=CCC=CC3)[C@H]2SC1 [cefroxadin, 7β-[D-2-amino-2-(1,4-cyclohexadienyl)-acetamido]-3-methoxy-3-cephem-4-carboxylic acid]
lower by a multiple: all assays above
